# Source: publication PMC4363317, “A Highly Efficient Recombinant Laccase from the Yeast Yarrowia lipolytica and Its Application in the Hydrolysis of Biomass” (PLoS ONE, 2015)
# Molecular target: T1, YlLac (Yarrowia lipolytica, UniProt G1C1M2)
# T1 construct: ORF 519 residues incl; 19-residue native signal (abstract instead calls the mature protein 519 aa); expressed without native signal behind alpha-factor signal (pPICZalphaA-Wsp-YlLac) in Pichia pastoris KM71H; forward primer GCCATTGGCCCGGTGACC encodes AIGPVT; monomer, glycosylated ~67-68 kDa, ~55 kDa after endoH
# T1 sequence (G1C1M2 20-519): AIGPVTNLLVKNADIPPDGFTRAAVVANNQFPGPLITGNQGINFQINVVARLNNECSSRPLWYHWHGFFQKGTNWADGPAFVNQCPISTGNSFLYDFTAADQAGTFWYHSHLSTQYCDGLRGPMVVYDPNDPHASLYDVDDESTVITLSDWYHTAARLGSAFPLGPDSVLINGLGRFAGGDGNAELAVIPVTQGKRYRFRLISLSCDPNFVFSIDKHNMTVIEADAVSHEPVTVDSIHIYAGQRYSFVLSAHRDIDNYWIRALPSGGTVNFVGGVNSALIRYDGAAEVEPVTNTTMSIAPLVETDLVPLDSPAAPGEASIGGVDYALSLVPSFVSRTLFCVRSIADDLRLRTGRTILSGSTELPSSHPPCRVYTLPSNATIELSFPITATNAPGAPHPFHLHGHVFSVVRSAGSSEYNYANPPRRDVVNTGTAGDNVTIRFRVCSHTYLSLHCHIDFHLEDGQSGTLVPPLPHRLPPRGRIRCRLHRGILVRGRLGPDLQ
# Assay: biochemical
# Parameters: spectrophotometric ABTS oxidation by purified recombinant YlLac with inhibitor, 50 mM sodium acetate pH 4.8
# Conditions: 0.1 mM ABTS, pH 4.8, read-out: % of control remaining; for remaining activity at 100 µM: 0.1 mM; for remaining activity at 500 µM: 0.5 mM; for remaining activity at 1000 µM: 1 mM
# Method: Sodium dodecyl sulfate polyacrylamide gel electrophoresis (SDS-PAGE; 12% w/v polyacrylamide) was performed as described by Laemmli. The native molecular mass was determined by applying samples to a calibrated Sephacryl S-300 HR 16/60 column as recommended by the supplier (GE Healthcare). Purified recombinant YlLac was treated with endoglycosidase H (NEB, Biolabs UK) according to the manufacturer's protocol. YlLac (6 μg) in 1× glycoprotein denaturing buffer was boiled for 10 min. After cooling, 1 μl of endoglycosidase H was added and the sample was incubated at 37°C overnight. The product of endoglycosidase H treatment was analyzed by SDS-PAGE. Protein bands were stained with Coomassie brilliant blue R-250 (Sigma). The zymogram process was carried out using native PAGE, and the enzyme band was visualized by incubating the gel in 50 mM sodium acetate buffer (pH 4.8) containing 0.1 mM ABTS and 2,6-DMP at room temperature. The UV-vis absorption spectrum of purified laccase was recorded at 25°C on a spectrophotometer (Shimadzu, model UV-1800, Tokyo) in 2 cm path length quartz cells. The effects of pH on laccase activity for various substrates were tested at pH 2–6 in 50 mM citrate-phosphate buffer (pH 2–4) or 50 mM sodium-acetate buffer (pH 4–6). The activity of purified laccase towards the ABTS substrate was examined at 20–80°C at the optimal pH value. The rates of substrate oxidation were determined by measuring the absorbance increases at the respective wavelengths, and the molar extinction coefficients (ε) were obtained from the literature. The effects of various inhibitors and metal ions on the activity of purified laccase were determined using assay mixtures (2 ml) containing appropriately diluted enzyme, 50 mM sodium acetate buffer (pH 4.8), and 0.1 mM ABTS with various concentrations of inhibitors or 5 mM metal ions. Laccase activity in the absence of inhibitor or metal ions was defined as 100%. Measurements were carried out in triplicate. K m and V max values of purified YlLac were determined by measuring the activity of the enzyme with various concentrations (0.01–0.1 mM) of ABTS and 2,6-DMP substrates at the optimal condition in each case. Ki A number of compounds were examined for their effects on YlLac activity, including small ions [compound left out], sulfhydryl group-containing redox reagents (L-cysteine and dithiothreitol, […]), denaturants (thiourea), and a chelator (EDTA) (S2 Table). […] Enzyme activity was not observed in the presence of 0.1 mM NaN3. SDS caused partial inhibition and the metal chelating agent EDTA caused no inhibition. Metal ions such as Cr^3+, Mg^2+, and Mn^2+ inhibited 25%, 24%, and 24% of YlLac activity, respectively.
remaining activity at 100 µM [%],remaining activity at 500 µM [%],remaining activity at 1000 µM [%],SMILES
76.6 ± 2.1,11.1 ± 1.5,0,N[C@@H](CS)C(=O)O [l-Cysteine]
61.1 ± 2.4,2 ± 0.4,0,O[C@@H](CS)[C@@H](O)CS (racemic) [Dithiothreitol]

SMILES,remaining activity at 100 µM [%],remaining activity at 500 µM [%],remaining activity at 1000 µM [%]
NC(N)=S [Thiourea],91.1 ± 2.1,42.2 ± 2,12.3 ± 1.5
